Counter-ions that a name gives are not always drawn.
Legend:
[1] = system: CPAE (calf pulmonary artery endothelia); experiment: Thrombolytic test in vitro: CPAE culture supernatant on fibrin plate, lysis circle; type: cell-based; conditions: 5 µl of 0.2 mg/ml compound solution per well of CPAE cells, 72 hours; 5 µl supernatant on fibrin plate with plasminogen, 4 hours; 4 mm or more = thrombolytic ability induced
Description: Thrombolytic activity-inducing ability in the established vascular endothelial cell culture system was examined using CPAE (calf pulmonary artery endothelia).
[…] cells were purchased from Dainippon Pharmaceutical Co., Ltd., Department of Laboratory Products. CPAE cells were subcultured in 10% FCS-Eagle MEM medium charged in a culture flask of 25 cm^2. From the cell suspension fractionated upon subculture, 0.1 ml was transferred into a test tube with a sterilized pipette. Then, the cell suspension was diluted to 10 fold with 0.9 ml of Trypan Blue solution and a cell count was counted with a cell counter. After diluting with 10% FCS-Eagle MEM medium so as to have a cell count of 2 x 10^5 cells/ml, 100 µl each/well, namely, 2 x 10^4 cells/well, of the dilution was dispensed in a 96 well microtiter plate (manufactured by Corning) with a micropipette. The plate was incubated at 37°C in 5% CO2.
The compound used according to the present invention was dissolved in medium in 0.2 mg/ml; the compound that was insoluble in the medium was dissolved in less than 1% of DMSO and the resulting solution was aseptically filtered through a filter; 5 µl of the solution was added to the well with a sterilized micropipette 24 hours after onset of the incubation. After culturing at 37°C for 72 hours in 5% CO2, the collected culture supernatant was provided for measurement.
The measurement was performed as follows. Plasminogen, 5 µl, was charged in a well of fibrin plate (manufactured by Kitazato institute), which was allowed to stand until diffusion was completed. After diffusion, 5 µl of the supernatant was charged and then put in a carbon dioxide gas incubator of 37°C. Four hours after, evaluation was made by formation of a transparent lysis circle by fibrinolysis.
In the case of forming a circle of 4 mm or more due to fibrinolysis, it was judged that thrombolytic ability of CPAE cells was induced.
After the fibrinolytic activity was checked over, the well was fixed with 2.5% of glutaraldehyde in a final concentration. Then, the solution was discarded and the system was washed with PBS. After washing, moisture was removed. After staining with 100 µl of 0.1% crystal violet and allowing stand for 2 to 3 minutes, the system was washed with running water. After an excess of the staining solution was washed out, moisture was removed and the dye bound to the cells was eluted by 100 µl of methanol. Using multiscanning (Titertech), measurements were performed at a wavelength of 580 nm in accordance with the ABS method and the matrix method to confirm that the cells were not injured.

[2] = system: α2-plasmin inhibitor (α2-PI); experiment: α2-PI activity in culture medium of HepG2 cells (plasmin / S-2251 chromogenic substrate); type: cell-based, human; conditions: 200 µg/ml of compound, serum-free medium, 3 to 4 days, culture without test compound = 100%, n=3
Description: It is known that human hepatic cancer-derived HepG2 cells synthesize and secrete α2-plasmin inhibitor (α2-PI). The HepG2 cells, 2 x 10^6, were inoculated on a plastic culture plate (diameter of 100 mm) made by Falcon Inc. and cultured in Eagle's minimum medium containing 10% bovine fetal serum.
Three days after, cells adhered to the bottom of the plate were washed twice with Dulbecco's phosphate buffer followed by culturing in 8 ml of serum-free Eagle's medium (containing no Phenol Red) containing 200 µg/ml of a specimen of the compound of the present invention for further 3 to 4 days. […]
To 100 µl of the concentrated sample, 50 µl of 15 mCU plasmin solution was added and further 50 µl of 0.25 µmole S-2251 synthetic chromogenic substrate solution was added thereto followed by reacting at 37°C for 10 minutes. By adding 1 ml of 2% citrate solution, the reaction was stopped. p-Nitroanilide released from the S-2251 substrate was measured at O.D. of 405 nm.
A sample in which decomposition of the S-2251 substrate was measured using the aforesaid Tris buffer instead of the concentrated sample was made a control showing 100% plasmin activity and the concentrated sample cultured without adding a test compound was made a control showing 100% α2-PI activity. […]

Test on acute toxicity = conditions: mouse, in vivo
Description: Four (4) ddY strain male mice of 6 week age were used for each group of the test sample.
In intravenous administration, each sample was dissolved in 0.9% physiological saline and the solution was administered through the tail vein. In intraperitoneal administration, each sample was suspended in 0.5% CMC-physiological saline and 0.1 ml of the suspension per […] of mouse body weight was intraperitoneally administered. In oral administration, each sample was suspended in 0.5% CMC-physiological saline and 0.2 ml of the suspension per […] administered.
Observation was made immediately after the administration. After observation for 1 week after the administration, the mice was sacrificed with chloroform and subjected to autopsy.

Compound | Diameter (mm) of the circle due to fibrinolysis [1] | other results
Cc1ccc(CCCCN2C[C@H](O)[C@@H](O)[C@H](O)[C@H]2CO)cc1F [Compound No. 32, N-[4-(3-Fluoro-4-methylphenyl)butyl]moranoline] | 7.5 mm | 
CCCCN1C[C@H](O)[C@@H](O)[C@H](O)[C@H]1CO [Compound No. 2a, N-(n-Butyl)moranoline] | 7.5 mm | 
OC[C@@H]1[C@@H](O)[C@H](O)[C@@H](O)CN1CCC1CCCC1 [Compound No. 19, N-(2-Cyclopentylethyl)moranoline tosylate] | 5.8 mm | 
OC[C@@H]1[C@@H](O)[C@H](O)[C@@H](O)CN1CCC=Cc1ccccc1 [Compound No. 28, N-(4-Phenyl-3-butenyl)moranoline tosylate] | 8.3 mm | 
CC(C)Oc1ccc(C=CCN2CC(O)C(O)C(O)C2CO)cc1 (stereo not shown) [Compound No. 34, N-(p-Isopropoxycinnamyl)moranoline] | 7.6 mm | 
Nojirimycin bisulfite [Compound No. 6] |  | α2-PI activity (%) [2]: 67%
CC(=CCN1C[C@H](O)[C@@H](O)[C@H](O)[C@H]1CO)c1ccc(Br)cc1 [Compound No. 31, N-(γ-Methyl-4-bromocinnamyl)moranoline] | 7.9 mm | 
CCOC(=O)c1ccc(OCCN2C[C@H](O)[C@@H](O)[C@H](O)[C@H]2CO)cc1 [Compound No. 37, N-(p-Ethoxycarbonylphenoxyethyl)moranoline] | 6.9 mm | 
OC[C@@H]1[C@@H](O)[C@H](O)[C@@H](O)CN1CCCCc1ccccc1 [Compound No. 15, N-4-Phenylbutylmoranoline tosylate] | 6.3 mm | 
OC[C@@H]1[C@@H](O)[C@H](O)[C@@H](O)CN1CCCOc1ccccc1Cl [Compound No. 30, N-(3-o-Chlorophenoxypropyl)moranoline] | 7.6 mm | 
C[N+]1(C)C[C@H](O)[C@@H](O)[C@H](O)[C@H]1CO [Compound No. 21, N,N-Dimethylmoranoline ammonium iodide] | 5.6 mm | 
CC(C)=CCCC(C)=CCCC(C)=CCN1CC(O)C(O)C(O)C1CO (stereo not shown) [Compound No. 26, N-Farnesylmoranoline tosylate] | 5.7 mm | 
CCCCCCCCC(O)CN1C[C@H](O)[C@@H](O)[C@H](O)[C@H]1CO (stereo partly shown) [Compound No. 10, N-(2-Hydroxydecyl)moranoline tosylate] | 4.5 mm | 
CNC(=O)CCCCCCCCCCN1C[C@H](O)[C@@H](O)[C@H](O)[C@H]1CO [Compound No. 27, N-10-(N-Methylcarbamoyl)decylmoranoline] | 8.5 mm | 
CCOc1ccc(C=CCN2CC(O)C(O)C(O)C2CO)cc1 (stereo not shown) [Compound No. 33, N-(p-Ethoxycinnamyl)moranoline] | 7.8 mm | 
COc1cccc(C(C)=CCCN2C[C@H](O)[C@@H](O)[C@H](O)[C@H]2CO)c1 [Compound No. 36, N-(4-m-Methoxyphenyl-3-pentenyl)moranoline] | 7.6 mm | 

Compound | Diameter (mm) of the circle due to fibrinolysis [1] | other results
OC[C@H]1NC[C@H](O)[C@@H](O)[C@@H]1O [Compound No. 1, Moranoline] |  | LD50 at 168 h (Test on acute toxicity; ip): 5000 mg/kg; LD50 at 168 h (Test on acute toxicity; iv): 3240 mg/kg; LD50 at 168 h (Test on acute toxicity; po): 7500 mg/kg
OC[C@@H]1[C@@H](O)[C@H](O)[C@@H](O)CN1CC(O)COc1ccccc1 (stereo partly shown) [Compound No. 25, N-(2-Hydroxy-3-phenoxypropyl)moranoline tosylate] | 4.1 mm | 
OC[C@@H]1[C@@H](O)[C@H](O)[C@@H](O)CN1CC=Cc1ccccc1 [Compound No. 14, N-Cinnamylmoranoline hydrochloride] | 5.9 mm | 
O[C@H]1[C@H](O)[C@@H](O)CN2CC[C@H](O)[C@H]12 [Compound No. 38, Castanospermine] | 6.9 mm | 
CC(=Cc1ccccc1)CN1C[C@H](O)[C@@H](O)[C@H](O)[C@H]1CO [Compound No. 29, N-(3-Phenyl-2-methyl-2-propenyl)moranoline] | 7.1 mm | 
OCC1C(O)C(O)C(O)CN1CC=Cc1ccccc1 (stereo not shown) [Compound No. 23, N-Cinnamylmoranoline] | 8.4 mm | 
OC[C@@H]1[C@@H](O)[C@H](O)[C@@H](O)CN1CCCCCc1ccccc1 [Compound No. 18, N-5-(Phenylpentyl)moranoline tosylate] | 6.8 mm | 
CCCCCCN1C[C@H](O)[C@@H](O)[C@H](O)[C@H]1CO [Compound No. 8, N-Hexylmoranoline tosylate] | 6.3 mm | 
COCCOc1cccc(C(C)=CCN2C[C@H](O)[C@@H](O)[C@H](O)[C@H]2CO)c1 [Compound No. 20, N-[3-(3-Methoxyethoxyphenyl)-2-butenyl]moranoline] | 8.0 mm | 
OC[C@@H]1[C@@H](O)[C@H](O)[C@@H](O)CN1CCCOc1ccccc1 [Compound No. 17, N-(3-Phenoxypropyl)moranoline tosylate] | 7.5 mm | 
CC(=CCN1C[C@H](O)[C@@H](O)[C@H](O)[C@H]1CO)c1cccc(C)c1 [Compound No. 35, N-(γ-Methyl-m-methylcimnnamyl)moranoline] | 7.8 mm | 
OC[C@@H]1[C@@H](O)[C@H](O)[C@@H](O)CN1CCCc1ccccc1 [Compound No. 12, N-(3-Phenylpropyl)moranoline tosylate] | 5.9 mm | 
CCN1C[C@H](O)[C@@H](O)[C@H](O)[C@H]1CO [Compound No. 22, N-Ethylmoranoline] | 6.5 mm | 
N-Isoprenylmoranoline [Compound No. 9] | 8.2 mm | α2-PI activity (%) [2]: 55%
CC(C)=CCC/C(C)=C/CN1C[C@H](O)[C@@H](O)[C@H](O)[C@H]1CO [Compound No. 24, N-Geranylmoranoline tosylate] | 7.6 mm | 
